Data as given in patent US12257287B2, “Glucagon-derived peptide and use thereof” (Tianjin Institute of Pharmaceutical Research Co., Ltd., priority 2018, dated 2025).
Values after ≈ are worked out from the molar mass of the structure shown. Numbered stars: 1 amine (or outer) side, 2 acyl side, 3 side chain; on linkers, the order of the positions; unused ones are H or OH. Square brackets hold non-standard residues; d marks the D form. Side chains are listed from the residue outwards. Peptide text beside a SMILES is read from it. * marks the point of attachment. C18 diacid = O=C(O)CCCCCCCCCCCCCCCCC(=O)*; γGlu = O=C(O)[C@H](CCC(=O)[*:2])N[*:1]; AEEA = NCCOCCOCC(=O)O; Aib = CC(C)(N)C(=O)O

How the values were obtained:
[1] = physchem; type: physicochemical
[2] = molecular target: T1, GC receptor (Homo sapiens, UniProt P47871); assay: GC receptor mediated cAMP production in vitro (HEK293 cells transfected with GC receptor); type: cell-based; conditions: 20 min at 37° C., read-out: GCGR (nM EC50)
T1 construct: expressed in transfected cells; host or cells: HEK293 cells
T1 sequence (P47871 26-477): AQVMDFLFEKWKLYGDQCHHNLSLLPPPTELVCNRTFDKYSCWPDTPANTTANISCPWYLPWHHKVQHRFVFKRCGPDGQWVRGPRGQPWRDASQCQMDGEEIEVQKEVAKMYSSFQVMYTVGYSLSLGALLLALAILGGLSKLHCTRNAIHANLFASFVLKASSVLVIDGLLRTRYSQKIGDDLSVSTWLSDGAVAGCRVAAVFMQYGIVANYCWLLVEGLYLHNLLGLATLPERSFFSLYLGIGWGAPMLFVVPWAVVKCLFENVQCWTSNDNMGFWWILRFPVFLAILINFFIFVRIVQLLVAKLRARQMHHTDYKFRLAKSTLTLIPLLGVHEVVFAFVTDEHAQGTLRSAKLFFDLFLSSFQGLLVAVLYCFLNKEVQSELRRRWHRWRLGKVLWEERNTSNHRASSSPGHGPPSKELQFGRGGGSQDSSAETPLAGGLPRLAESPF
From the text: The medium was removed, the cells were lysed, and cAMP values were detected referring to the detection method described for the assay kit.

[3] = pH 7.5, Solubility, pH 7.5, 10 mM phosphate buffer
[4] = pH 7.5, Solubility, pH 7.5, 20 mM phosphate buffer
[5] = pH 8, Solubility, pH 8.0, 10 mM phosphate buffer
[6] = pH 8, Solubility, pH 8.0, 20 mM phosphate buffer
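For Solubility in this document: compound added at 2 mg per mL of phosphate buffer, with the dissolved amount determined in the supernatant.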
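For Solubility, pH 7.5, 20 mM phosphate buffer in this document: compound added at 2 mg per mL of phosphate buffer, with the dissolved amount determined in the supernatant.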

SMILES	solubility [1, 3] [µg/mL]	solubility [1, 4] [µg/mL]	solubility [1, 5] [µg/mL]	solubility [1, 6] [µg/mL]	EC50 [2] [nM]	Solubility, pH 7.5, 20 mM phosphate buffer ([1]; pH 7.5)
CCCCCCCCCCCCCCCC(=O)N[C@@H](CCC(=O)N[C@@H](CCC(=O)NCCCC[C@H](NC(=O)[C@H](CC(=O)O)NC(=O)[C@H](CO)NC(=O)[C@@H](NC(=O)[C@H](Cc1ccccc1)NC(=O)[C@@H](NC(=O)CNC(=O)[C@H](CCC(N)=O)NC(=O)C(C)(C)NC(=O)[C@@H](N)Cc1c[nH]cn1)[C@@H](C)O)[C@@H](C)O)C(=O)N[C@@H](CO)C(=O)N[C@@H](CCCCN)C(=O)N[C@@H](Cc1ccc(O)cc1)C(=O)N[C@@H](CC(C)C)C(=O)N[C@@H](CCC(=O)O)C(=O)N[C@@H](CCC(=O)O)C(=O)N[C@@H](CCCNC(=N)N)C(=O)N[C@@H](C)C(=O)N[C@@H](C)C(=O)N[C@@H](CCCCN)C(=O)N[C@@H](CCC(=O)O)C(=O)N[C@@H](Cc1ccccc1)C(=O)N[C@H](C(=O)N[C@@H](CCC(=O)O)C(=O)N[C@@H](Cc1c[nH]c2ccccc12)C(=O)N[C@@H](CC(C)C)C(=O)N[C@@H](CC(C)C)C(=O)N[C@@H](CCC(=O)O)C(=O)N[C@@H](C)C(=O)NCC(=O)NCC(=O)N1CCC[C@H]1C(=O)N[C@@H](CO)C(=O)N[C@@H](CO)C(=O)NCC(N)=O)C(C)C)C(=O)O)C(=O)O [Compound 25] (HELM PEPTIDE1{H.[Aib].Q.G.T.F.T.S.D.K.S.K.Y.L.E.E.R.A.A.K.E.F.V.E.W.L.L.E.A.G.G.P.S.S.G.[am]}|PEPTIDE2{[CCCCCCCCCCCCCCCC(=O)[*:2]].[gGlu].[gGlu]}$PEPTIDE1,PEPTIDE2,10:R3-3:R2$$$V2.0; N-terminus assumed)	300 (≈ 69.2 µM)	100 (≈ 23.1 µM)	500 (≈ 115 µM)	200 (≈ 46.1 µM)	0.278	–
CCCCCCCCCCCCCCCC(=O)N[C@@H](CCC(=O)N[C@@H](CCC(=O)NCCCC[C@H](NC(=O)[C@H](CC(=O)O)NC(=O)[C@H](CO)NC(=O)[C@@H](NC(=O)[C@H](Cc1ccccc1)NC(=O)[C@@H](NC(=O)CNC(=O)[C@H](CCC(N)=O)NC(=O)C(C)(C)NC(=O)[C@@H](N)Cc1c[nH]cn1)[C@@H](C)O)[C@@H](C)O)C(=O)N[C@@H](CO)C(=O)N[C@@H](CCCCN)C(=O)N[C@@H](Cc1ccc(O)cc1)C(=O)N[C@@H](CC(C)C)C(=O)N[C@@H](CCC(=O)O)C(=O)N[C@@H](CCC(=O)O)C(=O)N[C@@H](CCCNC(=N)N)C(=O)N[C@@H](C)C(=O)N[C@@H](C)C(=O)N[C@@H](CCCCN)C(=O)N[C@@H](CCC(=O)O)C(=O)N[C@@H](Cc1ccccc1)C(=O)N[C@H](C(=O)N[C@@H](C)C(=O)N[C@@H](Cc1c[nH]c2ccccc12)C(=O)N[C@@H](CC(C)C)C(=O)N[C@@H](CC(C)C)C(=O)N[C@@H](CCC(=O)O)C(=O)NCC(=O)NCC(=O)N1CCC[C@H]1C(=O)N[C@@H](CO)C(=O)N[C@@H](CO)C(=O)NCC(N)=O)[C@@H](C)CC)C(=O)O)C(=O)O [Compound 16] (HELM PEPTIDE1{H.[Aib].Q.G.T.F.T.S.D.K.S.K.Y.L.E.E.R.A.A.K.E.F.I.A.W.L.L.E.G.G.P.S.S.G.[am]}|PEPTIDE2{[CCCCCCCCCCCCCCCC(=O)[*:2]].[gGlu].[gGlu]}$PEPTIDE1,PEPTIDE2,10:R3-3:R2$$$V2.0; N-terminus assumed)	140 (≈ 33.2 µM)	50 (≈ 11.8 µM)	160 (≈ 37.9 µM)	200 (≈ 47.4 µM)	0.092	–
CCCCCCCCCCCCCCCC(=O)N[C@@H](CCC(=O)N[C@@H](CCC(=O)NCCCC[C@H](NC(=O)[C@H](C)NC(=O)[C@H](CCCCN)NC(=O)[C@H](CCCNC(=N)N)NC(=O)[C@H](CCC(=O)O)NC(=O)[C@H](CCC(=O)O)NC(=O)[C@H](CC(C)C)NC(=O)[C@H](Cc1ccc(O)cc1)NC(=O)[C@H](CCCCN)NC(=O)[C@H](CO)NC(=O)[C@H](Cc1ccc(O)cc1)NC(=O)[C@H](CC(=O)O)NC(=O)[C@H](CO)NC(=O)[C@@H](NC(=O)[C@H](Cc1ccccc1)NC(=O)[C@@H](NC(=O)CNC(=O)[C@H](CCC(N)=O)NC(=O)C(C)(C)NC(=O)[C@@H](N)Cc1c[nH]cn1)[C@@H](C)O)[C@@H](C)O)C(=O)N[C@@H](CCC(=O)O)C(=O)N[C@@H](Cc1ccccc1)C(=O)N[C@H](C(=O)N[C@@H](CCC(=O)O)C(=O)N[C@@H](Cc1c[nH]c2ccccc12)C(=O)N[C@@H](CC(C)C)C(=O)N[C@@H](CCC(=O)O)C(=O)NCC(=O)NCC(=O)N1CCC[C@H]1C(=O)N[C@@H](CO)C(=O)N[C@@H](CO)C(=O)NCC(N)=O)C(C)C)C(=O)O)C(=O)O [Compound 62] (HELM PEPTIDE1{H.[Aib].Q.G.T.F.T.S.D.Y.S.K.Y.L.E.E.R.K.A.K.E.F.V.E.W.L.E.G.G.P.S.S.G.[am]}|PEPTIDE2{[CCCCCCCCCCCCCCCC(=O)[*:2]].[gGlu].[gGlu]}$PEPTIDE1,PEPTIDE2,20:R3-3:R2$$$V2.0; N-terminus assumed)	1170 (≈ 276 µM)	850 (≈ 200 µM)	1630 (≈ 384 µM)	1590 (≈ 375 µM)	0.156	–
CCCCCCCCCCCCCCCC(=O)N[C@@H](CCC(=O)N[C@@H](CCC(=O)NCCCC[C@H](NC(=O)[C@H](C)NC(=O)[C@H](CCCNC(=N)N)NC(=O)[C@H](CCCCN)NC(=O)[C@H](CCC(=O)O)NC(=O)[C@H](CCC(=O)O)NC(=O)[C@H](CC(C)C)NC(=O)[C@H](Cc1ccc(O)cc1)NC(=O)[C@H](CCCCN)NC(=O)[C@H](CO)NC(=O)[C@H](Cc1ccc(O)cc1)NC(=O)[C@H](CC(=O)O)NC(=O)[C@H](CO)NC(=O)[C@@H](NC(=O)[C@H](Cc1ccccc1)NC(=O)[C@@H](NC(=O)CNC(=O)[C@H](CCC(N)=O)NC(=O)C(C)(C)NC(=O)[C@@H](N)Cc1c[nH]cn1)[C@@H](C)O)[C@@H](C)O)C(=O)N[C@@H](CCC(=O)O)C(=O)N[C@@H](Cc1ccccc1)C(=O)N[C@H](C(=O)N[C@@H](CCC(=O)O)C(=O)N[C@@H](Cc1c[nH]c2ccccc12)C(=O)N[C@@H](CC(C)C)C(=O)N[C@@H](CC(C)C)C(=O)N[C@@H](CCC(=O)O)C(=O)N[C@@H](C)C(=O)NCC(=O)NCC(=O)N1CCC[C@H]1C(=O)N[C@@H](CO)C(=O)N[C@@H](CO)C(=O)NCC(N)=O)C(C)C)C(=O)O)C(=O)O [Compound 26] (HELM PEPTIDE1{H.[Aib].Q.G.T.F.T.S.D.Y.S.K.Y.L.E.E.K.R.A.K.E.F.V.E.W.L.L.E.A.G.G.P.S.S.G.[am]}|PEPTIDE2{[CCCCCCCCCCCCCCCC(=O)[*:2]].[gGlu].[gGlu]}$PEPTIDE1,PEPTIDE2,20:R3-3:R2$$$V2.0; N-terminus assumed)	80 (≈ 18.1 µM)	–	200 (≈ 45.2 µM)	100 (≈ 22.6 µM)	0.197	Insoluble
CCCCCCCCCCCCCCCC(=O)N[C@@H](CCC(=O)N[C@@H](CCC(=O)NCCCC[C@H](NC(=O)[C@H](CC(=O)O)NC(=O)[C@H](CO)NC(=O)[C@@H](NC(=O)[C@H](Cc1ccccc1)NC(=O)[C@@H](NC(=O)CNC(=O)[C@H](CCC(N)=O)NC(=O)C(C)(C)NC(=O)[C@@H](N)Cc1c[nH]cn1)[C@@H](C)O)[C@@H](C)O)C(=O)N[C@@H](CO)C(=O)N[C@@H](CCCCN)C(=O)N[C@@H](Cc1ccc(O)cc1)C(=O)N[C@@H](CC(C)C)C(=O)N[C@@H](CCC(=O)O)C(=O)N[C@@H](CCC(=O)O)C(=O)N[C@@H](CCCCN)C(=O)N[C@@H](CCCNC(=N)N)C(=O)N[C@@H](C)C(=O)N[C@@H](CCCCN)C(=O)N[C@@H](CCC(=O)O)C(=O)N[C@@H](Cc1ccccc1)C(=O)N[C@H](C(=O)N[C@@H](CCC(=O)O)C(=O)N[C@@H](Cc1c[nH]c2ccccc12)C(=O)N[C@@H](CC(C)C)C(=O)N[C@@H](CCC(=O)O)C(=O)N[C@@H](C)C(=O)NCC(=O)NCC(=O)N1CCC[C@H]1C(=O)N[C@@H](CO)C(=O)N[C@@H](CO)C(=O)NCC(N)=O)[C@@H](C)CC)C(=O)O)C(=O)O [Compound 11] (HELM PEPTIDE1{H.[Aib].Q.G.T.F.T.S.D.K.S.K.Y.L.E.E.K.R.A.K.E.F.I.E.W.L.E.A.G.G.P.S.S.G.[am]}|PEPTIDE2{[CCCCCCCCCCCCCCCC(=O)[*:2]].[gGlu].[gGlu]}$PEPTIDE1,PEPTIDE2,10:R3-3:R2$$$V2.0; N-terminus assumed)	–	–	–	–	1.73	–
CC[C@H](C)[C@H](NC(=O)[C@H](Cc1ccccc1)NC(=O)[C@H](CCC(=O)O)NC(=O)[C@H](CCCCNC(=O)COCCOCCNC(=O)COCCOCCNC(=O)CC[C@H](NC(=O)CCCCCCCCCCCCCCCCC(=O)O)C(=O)O)NC(=O)[C@H](C)NC(=O)[C@H](CCCCN)NC(=O)[C@H](CCCNC(=N)N)NC(=O)[C@H](CCC(=O)O)NC(=O)[C@H](CCC(=O)O)NC(=O)[C@H](CC(C)C)NC(=O)[C@H](Cc1ccc(O)cc1)NC(=O)[C@H](CCCCN)NC(=O)[C@H](CO)NC(=O)[C@H](Cc1ccc(O)cc1)NC(=O)[C@H](CC(=O)O)NC(=O)[C@H](CO)NC(=O)[C@@H](NC(=O)[C@H](Cc1ccccc1)NC(=O)[C@@H](NC(=O)CNC(=O)[C@H](CCC(N)=O)NC(=O)C(C)(C)NC(=O)[C@@H](N)Cc1c[nH]cn1)[C@@H](C)O)[C@@H](C)O)C(=O)N[C@@H](C)C(=O)N[C@@H](Cc1c[nH]c2ccccc12)C(=O)N[C@@H](CC(C)C)C(=O)N[C@@H](CCC(=O)O)C(=O)N[C@@H](C)C(=O)NCC(=O)NCC(=O)N1CCC[C@H]1C(=O)N[C@@H](CO)C(=O)N[C@@H](CO)C(=O)NCC(N)=O [Compound 44] (H-H[Aib]QGTFTSDYSKYLEERKAK([AEEA-AEEA-γGlu-C18 diacid])EFIAWLEAGGPSSG-NH2; N-terminus assumed)	–	–	–	–	0.219	–
